How the values were obtained:
IMP-1 = target: T1, IMP-1 (Serratia marcescens, UniProt P52699); assay: In vitro MBL inhibition assay, imipenem hydrolysis (IMP-1); type: biochemical; settings: Ki IMP-1, imipenem substrate, Ki from IC50 by Cheng-Prusoff, Km 25 μM
T1 construct: made in house
Protocol: The MBL enzyme IMP-1 is produced and purified as disclosed in Laraki et al, Antimicrobial Agents & Chemotherapy, (1999), 43(4), 902-906.
(§1) Reaction buffers were prepared in a UV-transparent 96-well microplate, which buffer contains 10 mM HEPES pH 7.5, 50 μM ZnSO4, 20 μg/mL BSA. An amount of 75 ng of protein was added to each well.
(§2) Spectrophometric assays are performed to determine NDM-1/VIM-2/IMP-1 carbapenemase activity using purified proteins (50 ng for NDM-1/VIM-2, 25 ng IMP-1) from NDM-1/VIM-2/IMP-1 expressing bacteria using […] of imipenem as substrate in 10 mM HEPES pH 7.5, 50 μM ZnSO4. MBL hydrolysis is measured at 299 nm for 10 minutes at 30° C. as the absorbance changes due to the opening of beta-lactam ring of the antibiotic.
(§3) The Ki values obtained for selected example compounds are shown in Table 3, where they are compared with the values for pyridine-2-carboxylic acid.

VIM-2 = target: T2, VIM-2 (Escherichia coli, UniProt Q5U7L7); assay: In vitro MBL inhibition assay, imipenem hydrolysis (VIM-2); type: biochemical; settings: Ki VIM-2, imipenem substrate, Ki from IC50 by Cheng-Prusoff, Km 9 μM
T2 construct: made in house
Protocol: The MBL enzyme VIM-2 is produced and purified as disclosed in Borgianni et al, Antimicrobial Agents & Chemotherapy, (2010), 54(8), 3197-3204.
as §1, §2, §3

NDM-1 = target: T3, NDM-1 (Klebsiella pneumoniae, UniProt C7C422); assay: In vitro MBL inhibition assay, imipenem hydrolysis (NDM-1); type: biochemical; settings: Ki NDM-1, imipenem substrate, Ki from IC50 by Cheng-Prusoff, Km 70 μM
T3 construct: made in house
Protocol: NDM-1 is produced and purified as disclosed in Yong et al, Antimicrobial Agents & Chemotherapy, (2009) 53(12), 5046-54.
as §1, §2, §3

NTBC039 = assay: MIC of meropenem in presence of the inhibitor, broth microdilution; type: cell-based; settings: compound at 100 μM, 37° C., 18-20 h
[1] = system: NTBC023 strain: Klebsiella pneumoniae producing VIM-1+SHV-5; assay: as above; type: cell-based; settings: compound at 100 μM, 37° C., 18-20 h
Protocol: (§4) The minimal inhibitory concentration (MIC) of meropenem in presence of the inhibitor is routinely assessed against 3 representative clinical strains: • NTBC020 Strain: Escherichia coli producing NDM-1+TEM-1+CTX-M-15, (isolated in Australia in 2009); • NTBC023 strain: Klebsiella pneumoniae producing VIM-1+SHV-5, (isolated in France in 2002); • NTBC062 strain: Klebsiella pneumoniae producing IMP-1+TEM-1, (isolated in France in 2012);
(§5) The assay was performed according to the standard broth microdilution method described by the Clinical and Laboratory Standards Institute (CLSI-M7-A7—Methods for dilution antimicrobial susceptibility tests for bacteria that grow aerobically; Approved standard; CLSI, Wayne, Pa., USA. 2006). This method involves the use of small volumes of broth dispensed in sterile, plastic 96-wells microdilution plates. The compounds were tested at a concentration of 100 μM and controls included the susceptibility tests for the three selected strains without the compounds and for the two reference strains E. coli ATCC 25922 and Pseudomonas aeruginosa ATCC 27853 as Quality Controls.
(§6) From a stock solution at 20 mM in DMSO, compounds were prepared by diluting 0.04 mL of the compound solution in 0.04 mL of Mueller-Hinton (MH) broth (2-fold dilution). Then, 0.001 mL of the compound dilution was distributed in the 96-wells microdilution plates to give a final concentration of 100 μM for a final volume of 0.1 mL by well.
(§7) From a meropenem stock solution at 10 mg/ml in water, meropenem 2-fold serial dilutions were prepared in MH broth at twice the desired final concentrations, e.g from 512 to 0.0037 μg/ml. The 96-wells microdilution plates were then filled with 0.05 mL of the meropenem dilutions. For each susceptibility test, two wells were left free of antibiotic and filled with 0.05 mL of sterile MH broth to serve as growth controls.
(§8) The bacterial inoculum was prepared by direct colony suspension from a 24 h-agar plate in saline solution (NaCl 9 g/L). The suspension was adjusted to a 0.5 MacFarland turbidity standard (1-2×10^8 CFU/mL) and then diluted 1:100 in MH broth. 0.05 mL of the bacterial dilution was then inoculated to each well giving a final volume of 0.1 mL and a final bacterial concentration of approximately 5×10^5 CFU/mL.
(§9) Microdilution plates were incubated at 37° C. in an ambient air incubator for 18-20 h.

[2] = system: NTBC020 Strain: Escherichia coli producing NDM-1+TEM-1+CTX-M-15; assay: as above; type: cell-based; settings: compound at 100 μM, 37° C., 18-20 h
Protocol: as §4, §5, §6, §7, §8, §9

T3 sequence (C7C422 29-270 limits assumed): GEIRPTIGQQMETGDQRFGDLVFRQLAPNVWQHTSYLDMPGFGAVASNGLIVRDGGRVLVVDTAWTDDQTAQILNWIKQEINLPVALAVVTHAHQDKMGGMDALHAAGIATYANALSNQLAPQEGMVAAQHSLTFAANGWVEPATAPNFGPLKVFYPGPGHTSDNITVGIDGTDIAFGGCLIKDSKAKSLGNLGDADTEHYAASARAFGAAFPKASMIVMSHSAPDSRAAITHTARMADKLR
T1 sequence (P52699 19-246, species assumed): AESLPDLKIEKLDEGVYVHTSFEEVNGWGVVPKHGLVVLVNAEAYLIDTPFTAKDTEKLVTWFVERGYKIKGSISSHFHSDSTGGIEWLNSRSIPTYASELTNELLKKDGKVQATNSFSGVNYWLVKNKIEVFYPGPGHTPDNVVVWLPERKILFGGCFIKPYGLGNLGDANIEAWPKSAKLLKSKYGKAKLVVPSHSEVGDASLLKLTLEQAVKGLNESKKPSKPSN

| Structure (SMILES) | Ki (IMP-1) | Ki (VIM-2) | Ki (NDM-1) | MIC of meropenem, strain NTBC039 (NTBC039) | MIC of meropenem, strain NTBC023 [1] | MIC of meropenem, strain NTBC020 [2] |
| --- | --- | --- | --- | --- | --- | --- |
| O=C(O)c1ncsc1NS(=O)(=O)Cc1ccccc1 [Compound 5, 5-(phenylmethylsulfonamido)thiazole-4-carboxylic acid] | 50 nM | 210 nM | 2500 nM | – | – | – |
| O=C(O)c1ncsc1NS(=O)(=O)CCc1ccccc1 [Compound 7, 5-(2-phenylethylsulfonamido)thiazole-4-carboxylic acid] | 30 nM | 80 nM | 750 nM | – | – | – |
| O=C(O)c1ncsc1NS(=O)(=O)c1ccc(-c2ccccc2)s1 [Compound 20, 5-(5-phenylthiophene-2-sulfonamido)thiazole-4-carboxylic acid] | 100 nM | 480 nM | 940 nM | – | – | – |
| O=C(O)c1ncsc1NS(=O)(=O)Cc1cccc(Cl)c1Cl [Compound 48, 5-{[(2,3-dichlorophenyl)methyl]sulfonamido}-1,3-thiazole-4-carboxylic acid] | – | – | – | 0.25 µg/mL | 2 µg/mL | 4 µg/mL |
| Cc1nc(C(=O)O)c(NS(=O)(=O)Cc2ccccc2)s1 [Compound 50, 5-benzylsulfonamido-2-methyl-1,3-thiazole-4-carboxylic acid] | 60 nM | 260 nM | 1700 nM | – | – | – |
| O=C(O)c1nc(-c2ccccc2)sc1NS(=O)(=O)c1ccccc1 [Compound 58, 5-benzenesulfonamido-2-phenyl-1,3-thiazole-4-carboxylic acid] | 70 nM | 800 nM | 2300 nM | – | – | – |
| CC(c1ccccc1)S(=O)(=O)Nc1scnc1C(=O)O (stereo not drawn) [Compound 60, 5-[(1-phenylethyl)sulfonamido]-1,3-thiazole-4-carboxylic acid] | 70 nM | 100 nM | 800 nM | – | – | – |
| O=C(O)c1ncsc1NS(=O)(=O)CCN1C(=O)c2ccccc2C1=O [Compound 63, 5-{[2-(1,3-dioxo-2,3-dihydro-1H-isoindol-2-yl)ethyl]sulfonamido}-1,3-thiazole-4-carboxylic acid] | 1700 nM | 130 nM | 600 nM | – | – | – |
| O=C(O)c1ncsc1NS(=O)(=O)c1ccccc1Cl [Compound 66, 5-[(2-chlorophenyl)sulfonamido]-1,3-thiazole-4-carboxylic acid] | – | – | – | 8 µg/mL | 8 µg/mL | 16 µg/mL |
| O=C(O)c1ncsc1NS(=O)(=O)c1cccnc1 [Compound 67, 5-(pyridine-3-sulfonamido)-1,3-thiazole-4-carboxylic acid] | – | – | – | 8 µg/mL | 16 µg/mL | 1 µg/mL |
| O=C(O)c1ncsc1NS(=O)(=O)CC1CCCCC1 [Compound 69, 5-(cyclohexylmethyl)sulfonamido-1,3-thiazole-4-carboxylic acid] | – | – | – | 1 µg/mL | 4 µg/mL | 16 µg/mL |
| O=C(O)c1ncsc1NS(=O)(=O)N1CCCCC1 [Compound 75, 5-[(piperidine-1-sulfonyl)amino]-1,3-thiazole-4-carboxylic acid] | 940 nM | 340 nM | 2100 nM | – | – | – |
| CN(Cc1ccccc1)S(=O)(=O)Nc1scnc1C(=O)O [Compound 77, 5-{[benzyl(methyl)sulfamoyl]amino}-1,3-thiazole-4-carboxylic acid] | 120 nM | 30 nM | 1300 nM | – | – | – |
| CC(=O)Nc1ccc(S(=O)(=O)Nc2scnc2C(=O)O)cc1 [Compound 78, 5-[(4-acetamidophenyl)sulfonamido]-1,3-thiazole-4-carboxylic acid] | 50 nM | 400 nM | 160 nM | – | – | – |
| Cc1c(S(=O)(=O)Nc2scnc2C(=O)O)cnn1-c1ccccc1 [Compound 81, 5-[(5-methyl-1-phenyl-1H-pyrazol-4-yl)sulfonamido]-1,3-thiazole-4-carboxylic acid] | 410 nM | 30 nM | 130 nM | – | – | – |
| CN(c1ccccc1)S(=O)(=O)Nc1scnc1C(=O)O [Compound 88, 5-{[methyl(phenyl)sulfamoyl]amino}-1,3-thiazole-4-carboxylic acid] | 580 nM | 160 nM | 1000 nM | – | – | – |
| O=C(O)c1ncsc1NS(=O)(=O)c1ccc(-n2cccn2)cc1 [Compound 94, 5-{[4-(1H-pyrazol-1-yl)phenyl]sulfonamido}-1,3-thiazole-4-carboxylic acid] | – | – | – | 4 µg/mL | 8 µg/mL | 16 µg/mL |
| O=C(O)c1nc(C(F)(F)F)sc1NS(=O)(=O)Cc1ccccc1Cl [Compound 96, 5-{[(2-chlorophenyl)methyl]sulfonamido}-2-(trifluoromethyl)-1,3-thiazole-4-carboxylic acid] | 1200 nM | 350 nM | 2700 nM | – | – | – |
| O=C(O)c1ncsc1NS(=O)(=O)CCCc1ccccc1 [Compound 101, 5-[(3-phenylpropyl)sulfonamido]-1,3-thiazole-4-carboxylic acid] | – | – | – | 1 µg/mL | 8 µg/mL | 32 µg/mL |
| O=C(O)c1ncsc1NS(=O)(=O)C1CCc2ccccc21 (stereo not drawn) [Compound 104, 5-(2,3-dihydro-1H-indene-1-sulfonamido)-1,3-thiazole-4-carboxylic acid] | – | – | – | 2 µg/mL | 4 µg/mL | 16 µg/mL |
| O=C(O)c1ncsc1NS(=O)(=O)c1ccc(C2CCNCC2)cc1 [Compound 118, 5-{[4-(piperidin-4-yl)phenyl]sulfonamido}-1,3-thiazole-4-carboxylic acid] | – | – | – | 4 µg/mL | 8 µg/mL | 4 µg/mL |
| O=C(O)c1ncsc1NS(=O)(=O)Cc1cccc(F)c1F [Compound 124, 5-{[(2,3-difluorophenyl)methyl]sulfonamido}-1,3-thiazole-4-carboxylic acid] | – | – | – | 0.25 µg/mL | 4 µg/mL | 4 µg/mL |
| O=C(O)c1ncsc1NS(=O)(=O)Cc1cc2c(cc1Cl)OCO2 [Compound 144, 5-[(6-chloro-2H-1,3-benzodioxol-5-yl)methylsulfonamido]-1,3-thiazole-4-carboxylic acid] | – | – | – | 1 µg/mL | 8 µg/mL | 16 µg/mL |
| O=C(O)c1ncsc1NS(=O)(=O)N1CCc2ccccc21 [Compound 147, 5-[(2,3-dihydroindole-1-sulfonyl)amino]-1,3-thiazole-4-carboxylic acid] | – | – | – | 4 µg/mL | 16 µg/mL | 8 µg/mL |
| O=C(O)c1ncsc1NS(=O)(=O)CCc1cccnc1 [Compound 151, 5-[2-(pyridin-3-yl)ethylsulfonamido]-1,3-thiazole-4-carboxylic acid] | 1800 nM | 100 nM | 3200 nM | – | – | – |
| O=C(O)c1ccccn1 [Pyridine-2-carboxylic acid, pyridine-2-carboxylic acid, reference compound] | 300000 nM | 1000 nM | 3000 nM | – | – | – |

From patent publication US9914712B2, “Antibacterial thiazolecarboxylic acids” (priority 2013, dated 2018)
